Experimental data from patent US20080125408A1, “PENEM PRODRUG” (Pfizer Inc, priority 2006, published 2008).
Values after ≈ are worked out from the molar mass of the structure shown.

Experiments:
[1] = Human Intestinal Juice (HIJ) stability studies; format: in vitro ADME; conditions: pooled HIJ from 4 subjects, buffered pH 7.4, 37° C., substrate 1-300 μM
Experimental: In the HIJ experiments, HIJ from 4 individual subjects (1 mL each) was pooled with 1 mL of 600 mM potassium phosphate buffer pH 7.4. Aliquots of 300 μL×6 of the buffered human intestinal juice were incubated at 37° C. following fortification of substrate at concentrations of 300, 100, 30, 10, 3, and 1 μM. Two prodrug compounds could be run at the same time. Samples of 35 μL were taken at 0, 0.5, 1, 2, 10, and 20 minutes and quenched with 70 μL of 80/20 acetonitrile/100 mM ammonium acetate pH 4.5 containing an internal standard (ampicillin, 5 μg/mL). Samples were centrifuged at 3000 g for 10 minutes and the supernatants transferred to injection vials. First order degradation of the prodrug was monitored by LC/MS/MS as described below. The percentage of prodrug remaining versus time at each concentration was fitted to a first order decay function to determine the substrate depletion rate constant or kdep. A linear-log plot of kdep versus concentration could be fitted with the following equation where: [formula] […] In Michaelis-Menton terms, intrinsic clearance CLint represents the ratio of Vmax/Km when [S] is well below the Km. Substrate units for these studies were reported in μM and intrinsic clearance (CIint) in mL/min.

[2] = Liver S9 stability and conversion efficiency to sulopenem; format: in vitro ADME, human; conditions: for half-life at 50 µM: human
Experimental: Oral bioavailability can be predicted variously by factors including one or more of (1) GI tract stability, (2) Caco-2 permeability, (3) efficiency of conversion to sulopenem, and (4) high solubility. Accordingly, the sulopenem prodrugs of the invention were evaluated, as detailed below, for stability in human intestinal juice (HIJ), efficiency of conversion to sulopenem in human liver homogenate, whole blood conversion and solubility as measured in phosphate buffer pH 5.0. Liver S9 was prepared fresh from liver chunks stored at −70° C. for each analysis completed. Approximately 5 g of frozen liver tissue was homogenized to uniformity in 15 mL of ice cold 100 mM potassium phosphate (pH 7.4) buffer. The homogenate was then centrifuged at 9000 g for 20 minutes at 5° C. to isolate the S9 supernatant fraction. Each incubation was run at a 1:10 dilution of the S9 supernatant in 100 mM potassium phosphate (pH 7.4) buffer. Reactions (1 mL) were initiated by the addition of substrate (50 μM final) at 37° C. Stability and conversion efficiency were assessed in 1 mL incubations with heparinized whole blood at 37° C. For both S9 homogenates and whole blood incubations, aliquots (75 μL) were obtained at 0, 0.5, 1, 2, 3, 5, 10, and 20 minutes and quenched in 150 μL of 80/20 acetonitrile/100 mM ammonium acetate pH 4.5 containing an internal standard (ampicillin, 5 μg/mL). Samples were centrifuged at 3000 g for 10 minutes and the supernatants transferred to injection vials. First order degradation of the prodrug was monitored by LC/MS/MS as described below. Conversion to sulopenem was expressed as a percentage of the molar equivalent (50 μM) in a fortified sample. The results of the S9 and whole blood stability and conversion studies are shown in Table 2, where single values represent an average of two duplicate determinations.

[3] = Equilibrium solubility in phosphate buffer pH 5
[4] = Whole blood conversion efficiency to sulopenem; format: in vitro ADME; conditions: heparinized whole blood, 37° C.
Experimental: Stability and conversion efficiency were assessed in 1 mL incubations with heparinized whole blood at 37° C. For both S9 homogenates and whole blood incubations, aliquots (75 μL) were obtained at 0, 0.5, 1, 2, 3, 5, 10, and 20 minutes and quenched in 150 μL of 80/20 acetonitrile/100 mM ammonium acetate pH 4.5 containing an internal standard (ampicillin, 5 μg/mL). Samples were centrifuged at 3000 g for 10 minutes and the supernatants transferred to injection vials. First order degradation of the prodrug was monitored by LC/MS/MS as described below. Conversion to sulopenem was expressed as a percentage of the molar equivalent (50 μM) in a fortified sample. The results of the S9 and whole blood stability and conversion studies are shown in Table 2, where single values represent an average of two duplicate determinations.

[5] = system: Caco-2 cells; experiment: Caco-2 permeability studies (A→B assay)
[6] = human, pooled human intestinal juice (HIJ)
[7] = prodrug degradation, liver S9 1:10, 50 μM, pH 7.4, 37° C.
[8] = phosphate buffer, pH 5, aqueous buffer, thermodynamic from solid

| Km [1, 6] [µM] | HIJ CLint [1] [mL/min] | half-life at 50 µM [2, 7] [min] | solubility [3, 8] [µg/mL] | SMILES | Km [1] [µM] | Whole Blood Conv [4] [%] | Caco-2 Permeability ([5]; Papp A→B, 100 μM prodrug, apical pH 6.5 / basolateral pH 7.4) [×10⁻⁶ cm/s] | increase in Caco-2 permeability compared to C1 ([5]; relative to comparative compound C1) [fold] | S9 Conv ([2]; conversion to sulopenem, % of molar equivalent (50 μM), liver S9 1:10, pH 7.4, 37° C.) [%] | S9 Half-life [2, 7] [min] | solubility ([3]; equilibrium, 25 mM phosphate buffer (pH 5), ambient temperature, up to 48 hours) [µg/mL] |
| --- | --- | --- | --- | --- | --- | --- | --- | --- | --- | --- | --- |
| 120 | 0.14 | 3.11 | 1200 (≈ 2520 µM) | CCc1oc(=O)oc1COC(=O)C1=C(S[C@H]2CC[S@@+]([O-])C2)S[C@@H]2[C@@H]([C@@H](C)O)C(=O)N12 [Compound 1, (5-ethyl-2-oxo-1,3-dioxol-4-yl)methyl (5R,6S)-6-[(1R)-1-hydroxyethyl]-7-oxo-3-[[(1R,3S)-tetrahydro-1-oxido-3-thienyl]thio]-4-thia-1-azabicyclo[3.2.0]hept-2-ene-2-carboxylate] |  |  |  |  |  |  |  |
| 172 | 0.13 | 2.1 | 453 (≈ 981 µM) | Cc1oc(=O)oc1COC(=O)C1=C(S[C@H]2CC[S@@+]([O-])C2)S[C@@H]2[C@@H]([C@@H](C)O)C(=O)N12 [Compound C1, (5-Methyl-2-oxo-1,3-dioxol-4-yl)methyl (5R,6S)-6-[(1R)-1-hydroxyethyl]-7-oxo-3-[[(1R,3S)-tetrahydro-1-oxido-3-thienyl]thio]-4-thia-1-azabicyclo[3.2.0]hept-2-ene-2-carboxylate] |  |  |  |  |  |  |  |

| SMILES | Km [1, 6] [µM] | HIJ CLint [1] [mL/min] | half-life at 50 µM [2, 7] [min] | solubility [3, 8] [µg/mL] | Km [1] [µM] | Whole Blood Conv [4] [%] | Caco-2 Permeability ([5]; Papp A→B, 100 μM prodrug, apical pH 6.5 / basolateral pH 7.4) [×10⁻⁶ cm/s] | increase in Caco-2 permeability compared to C1 ([5]; relative to comparative compound C1) [fold] | S9 Conv ([2]; conversion to sulopenem, % of molar equivalent (50 μM), liver S9 1:10, pH 7.4, 37° C.) [%] | S9 Half-life [2, 7] [min] | solubility ([3]; equilibrium, 25 mM phosphate buffer (pH 5), ambient temperature, up to 48 hours) [µg/mL] |
| --- | --- | --- | --- | --- | --- | --- | --- | --- | --- | --- | --- |
| CCCCc1oc(=O)oc1COC(=O)C1=C(S[C@H]2CC[S@@+]([O-])C2)S[C@@H]2[C@@H]([C@@H](C)O)C(=O)N12 [Compound 3, (5-(3-methylpropyl)-2-oxo-1,3-dioxol-4-yl)methyl (5R,6S)-6-[(1R)-1-hydroxyethyl]-7-oxo-3-[[(1R,3S)-tetrahydro-1-oxido-3-thienyl]thio]-4-thia-1-azabicyclo[3.2.0]hept-2-ene-2-carboxylate] |  | 0.16 |  |  | 41 | 84 | 5.02 | ~10 | 67 | 6.09 | 809 (≈ 1610 µM) |
